Test results reported in ChEMBL document CHEMBL3860110, “First Structure-Activity Relationship of 17β-Hydroxysteroid Dehydrogenase Type 14 Nonsteroidal Inhibitors and Crystal Structures in Complex with the Enzyme” (J Med Chem, 2016).

What was measured:
[1] = molecular target: T1, 17-beta-hydroxysteroid dehydrogenase type 2 (Homo sapiens, UniProt P37059); test: Inhibition of purified human placental microsomal 17beta-HSD2 using [3H]-E2 substrate and NAD+ by HPLC based radioactive […] assay
T1 sequence (P37059 whole entry): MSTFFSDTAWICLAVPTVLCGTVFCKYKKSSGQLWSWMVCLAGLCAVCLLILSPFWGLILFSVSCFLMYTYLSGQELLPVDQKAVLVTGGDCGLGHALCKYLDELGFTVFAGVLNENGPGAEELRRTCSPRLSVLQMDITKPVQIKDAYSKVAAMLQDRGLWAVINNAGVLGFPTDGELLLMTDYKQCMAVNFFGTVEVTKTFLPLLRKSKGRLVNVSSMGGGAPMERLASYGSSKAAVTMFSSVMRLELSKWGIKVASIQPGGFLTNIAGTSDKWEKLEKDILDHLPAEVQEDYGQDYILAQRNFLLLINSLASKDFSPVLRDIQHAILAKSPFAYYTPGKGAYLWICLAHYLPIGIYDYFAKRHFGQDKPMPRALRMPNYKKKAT

[2] = Dissociation constant, pKa of the compound at OH/C-ring; type: physicochemical
[3] = molecular target: T2, 17-beta-hydroxysteroid dehydrogenase 14 (Homo sapiens) (UniProt Q9BPX1); test: Inhibition of N-terminal 6His-tagged human HSD17B14 expressed in Escherichia coli BL21 (DE3) pLysS at 22.2 uM using E2 substrate and NAD+ incubated for 2 hrs using purified enzyme by fluorimetric assay
T2 sequence (whole entry): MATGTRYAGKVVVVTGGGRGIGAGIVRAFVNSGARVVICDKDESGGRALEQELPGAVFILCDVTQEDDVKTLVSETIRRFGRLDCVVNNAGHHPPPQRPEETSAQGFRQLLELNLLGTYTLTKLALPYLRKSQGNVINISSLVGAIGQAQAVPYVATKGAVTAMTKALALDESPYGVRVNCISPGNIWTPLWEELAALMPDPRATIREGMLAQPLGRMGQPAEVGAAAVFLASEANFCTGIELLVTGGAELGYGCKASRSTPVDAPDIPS

Compound | pKa [2] | other results
Cc1cc(-c2ccc(C(=O)c3ccc(F)c(O)c3)cc2)ccc1O |  | IC50 [1]: 40 nM
O=C(c1cccc(O)c1)c1cccc(-c2ccc(O)c(F)c2)n1 | 8.8 | 
COc1ccc(-c2ccc(C(=O)c3ccc(F)c(OC)c3)nc2)cc1F |  | inhibition [3]: 57%
O=C(c1ccc(F)c(O)c1)c1cccc(-c2ccc(O)c(F)c2)n1 | 7.8 | 
